Measured values reported in ChEMBL document CHEMBL1139753, “Synthesis, in vitro and in vivo cytotoxicity of 6,7-diaryl-2,3,8,8a-tetrahydroindolizin-5(1H)-ones” (Bioorg Med Chem Lett, 2007).

test system: HCT-116; assay: Cytotoxicity against HCT116 cells after 48 hrs; format: functional, cell-based; conditions: Homo sapiens, HCT-116, 48 h

Compound	IC50
O=C1N[C@H]2[C@H](CS[C@H]2CCCCC(=O)OC(=O)CCCCCNOc2ccc(C3=C(c4ccccc4)C(=O)N4CCCC4C3)cc2)N1 (stereo not given in full)	17 µM
COc1ccc(C2=C(c3cc(OC)c(OC)c(OCc4ccccc4)c3)CC3CCCN3C2=O)cc1OC (stereo not given)	3.3 µM
COc1ccc(C2=C(c3ccccc3)C(=O)N3CCCC3C2)cc1 (stereo not given)	0.39 µM
COc1ccc(C2=C(c3cccc(Cl)c3)C(=O)N3CCCC3C2)cc1 (stereo not given)	8 µM
COc1ccc(C2=C(c3ccc(C)cc3)C(=O)N3CCCC3C2)cc1 (stereo not given)	10 µM
COc1ccc(C2=C(c3ccc(Cl)c(Cl)c3)C(=O)N3CCCC3C2)cc1 (stereo not given)	4 µM
COc1ccc(C2=C(c3ccc(Cl)cc3)C(=O)N3CCCC3C2)cc1 (stereo not given)	13 µM
O=C1C(c2ccccc2)=C(c2ccc(OCc3ccccc3)cc2)CC2CCCN12 (stereo not given)	8.9 µM
COc1ccc(C2=C(c3ccc(OC)c(OC)c3)C(=O)N3CCCC3C2)cc1 (stereo not given)	5 µM
COc1ccc(C2=C(c3cccc(N)c3)C(=O)N3CCCC3C2)cc1 (stereo not given)	> 25 µM
COc1ccc(C2=C(c3ccc(OC)c(OC)c3)C(=O)N3CCCC3C2)cc1OC (stereo not given)	> 10 µM
COc1ccc(C2=C(c3ccccc3Cl)C(=O)N3CCCC3C2)cc1 (stereo not given)	8 µM
COc1ccc(C2=C(c3ccc(OC)cc3)C(=O)N3CCCC3C2)cc1 (stereo not given)	3.2 µM
O=C1C(c2ccccc2)=C(c2ccc(O)cc2)CC2CCCN12 (stereo not given)	9 µM
COc1ccc(C2=C(c3ccc(N=[N+]=[N-])cc3)C(=O)N3CCCC3C2)cc1 (stereo not given)	25 µM
